Test results: PubChem BioAssay (NCI)
Values joined by “and” are separate entries in the source; they are usually repeats but may differ in a detail not shown here. Identical values can stand only once.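 Five concentrations, 48 hours, 96-well plates. GI50: concentration for 50% inhibition of growth. The concentration for full growth arrest is given as TGI.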

Assays:
Test in all cases: NCI tumour cell line growth inhibition, 48 h
[1] = test system: 786-0 renal
[2] = test system: HCC-2998 colon
[3] = test system: IGROV1 ovarian
[4] = test system: M14 melanoma
[5] = test system: MOLT-4 leukemia
[6] = test system: NCI-H226 lung
[7] = test system: NCI-H23 lung
[8] = test system: OVCAR-4 ovarian
[9] = test system: SF-295 CNS
[10] = test system: SK-OV-3 ovarian

SMILES	GI50 [1]	TGI [1]	GI50 [2]	TGI [2]	GI50 [3]	TGI [3]	GI50 [4]	TGI [4]	GI50 [5]	TGI [5]	GI50 [6]	TGI [6]	GI50 [7]	TGI [7]	GI50 [8]	TGI [8]	GI50 [9]	TGI [9]	GI50 [10]	TGI [10]
Cc1c(Nc2nccc3cc(CN4CC[C@@H](O)C4)cnc23)cccc1-c1cccc(-c2nc3cc(CN4CC[C@@H](C(=O)O)C4)cc(C#N)c3o2)c1C	4.5 µM	> 100 µM	12.7 µM	49 µM	8.45 µM	> 100 µM	5.82 µM	20.3 µM	2.72 µM	9.08 µM	> 100 µM	> 100 µM	12 µM	27.1 µM	14.3 µM	> 100 µM	3.98 µM	> 100 µM	> 100 µM	> 100 µM
COC1=C(OC)C(=O)C(C/C=C(\C)CC/C=C(\C)CC/C=C(\C)CC/C=C(\C)CC/C=C(\C)CC/C=C(\C)CC/C=C(\C)CC/C=C(\C)CC/C=C(\C)CCC=C(C)C)=C(C)C1=O	> 100 µM	> 100 µM	> 100 µM	> 100 µM	> 100 µM	> 100 µM	> 100 µM	> 100 µM	> 100 µM	> 100 µM	> 100 µM	> 100 µM	> 100 µM	> 100 µM	> 100 µM	> 100 µM	> 100 µM	> 100 µM	> 100 µM	> 100 µM
CS(=O)(=O)c1ccc(COP(N)(=O)N(CCCl)CCCl)cc1 (centres undefined)	–	> 100 µM	–	> 100 µM	–	> 100 µM	–	> 100 µM	–	> 100 µM	–	> 100 µM	–	> 100 µM	–	> 100 µM	–	> 100 µM	–	> 100 µM
COc1ccc(-c2cc3ccccc3[nH]c2=O)cc1OC	–	> 100 µM	–	> 100 µM	–	> 100 µM	–	> 100 µM	–	> 100 µM	–	> 100 µM	–	> 100 µM	–	> 100 µM	–	> 100 µM	–	> 100 µM
O=C1CC(C2(O)C(=O)Nc3ccc([N+](=O)[O-])cc32)c2ccccc21 (centres undefined)	–	36.6 µM	–	44.9 µM	–	45.1 µM	–	52.2 µM	–	57.7 µM	–	92.7 µM	–	71 µM	–	88.1 µM	–	> 100 µM	–	> 100 µM
O=C1CS/C(=N/S(=O)(=O)c2ccc(N3N=C4c5ccccc5CC4C3c3cccs3)cc2)N1C(=O)c1ccccc1 (centres undefined)	48.8 µM	> 100 µM	17.6 µM	46.6 µM	28.3 µM	> 100 µM	44.7 µM	> 100 µM	22.2 µM	53.4 µM	58.5 µM	> 100 µM	25.1 µM	61.1 µM	> 100 µM	> 100 µM	31.7 µM	> 100 µM	> 100 µM	> 100 µM
COc1cc(/C=C/C(=O)CC(=O)/C=C/c2cc(OC)c(O)c(OC)c2)cc(OC)c1O	38.6 µM	25 µM and > 100 µM	–	11.6 µM	11 µM	10.8 µM and 32.2 µM	10.4 µM	25 µM and 28 µM	5.1 µM	25 µM and 84.4 µM	53.6 µM	25 µM and > 100 µM	12.7 µM	25 µM and 35.7 µM	29.5 µM	25 µM and > 100 µM	32.3 µM	25 µM and > 100 µM	32 µM	24 µM and > 100 µM
O=c1[nH]c2ccccc2c(O)c1/C=N/C(=S)NC1CCCCC1	–	> 100 µM	–	> 100 µM	–	> 100 µM	–	> 100 µM	–	> 100 µM	–	> 100 µM	–	> 100 µM	–	> 100 µM	–	> 100 µM	–	> 100 µM
COC(=O)CC1(O)C=CC(=O)C=C1	–	6.89 µM	–	29.4 µM	–	5.04 µM	–	16.6 µM	–	7.25 µM	–	26.8 µM	–	10.9 µM	–	11.6 µM	–	17.7 µM	–	29.6 µM
NC(N)=NC(N)=Nc1ccc(C(=O)O)cc1	–	> 100 µM	–	> 100 µM	–	> 100 µM	–	> 100 µM	–	> 100 µM	–	> 100 µM	–	> 100 µM	–	> 100 µM	–	> 100 µM	–	> 100 µM
COc1ccc(Nc2ncnc3ccc(-c4cncc(NS(C)(=O)=O)c4)cc23)cc1Cl	2.99 µM	13 µM	4.03 µM	15.4 µM	1.4 µM	4.46 µM	2.81 µM	13.6 µM	1.5 µM	4 µM	2.69 µM	18.1 µM	2.66 µM	15 µM	4.22 µM	83.1 µM	2.51 µM	10.1 µM	2.49 µM	6.93 µM
C=C(C)[C@@H]1CCc2c(O)c(O)c(=O)cc(C)c2C1	–	> 100 µM	–	> 100 µM	–	> 100 µM	–	> 100 µM	–	> 25.2 µM	–	> 63 µM	–	48.9 µM	–	> 100 µM	–	> 100 µM	–	> 100 µM
Cc1cc(=O)[nH]c(N/N=C/c2ccccc2O)n1	12.7 µM	> 100 µM	12.3 µM	> 100 µM	3.77 µM	> 100 µM	3.56 µM	26.3 µM	4.95 µM	> 100 µM	24.3 µM	> 100 µM	4.21 µM	> 100 µM	2.25 µM	> 100 µM	3.96 µM	> 100 µM	6.88 µM	> 100 µM
